Values quoted from earlier work as cited in publication PMC4408534 (Journal of nuclear medicine : official publication, Society …, 2014).

What was measured:
[1] = tested on: rat SSTR2 expressed in AR42J membranes; conditions: ref [28]
[2] = tested on: human SSTR2-transfected cell membranes; conditions: ± SEM, ref [27]

- binding affinity, rat SSTR2 [1]: 0.21 to 0.23 nM
SMILES: C[C@@H](O)[C@H](NC(=O)[C@@H]1CSSC[C@H](NC(=O)[C@@H](Cc2ccccc2)NC(=O)CN2CCN(CC(=O)[O-])CCN(CC(=O)[O-])CCN(CC(=O)[O-])CC2)C(=O)N[C@@H](Cc2ccc(O)cc2)C(=O)N[C@H](Cc2c[nH]c3ccccc23)C(=O)N[C@@H](CCCCN)C(=O)N[C@@H]([C@@H](C)O)C(=O)N1)C(=O)O.[177Lu+3] [177-Lu-Dotatate, Lu-177-Tyr3-octreotate]
- binding affinity, human SSTR2 [2]: 1.5 ± 0.4 nM
